Source: paper PMC11594329, “Development of LAT1-Selective Nuclear Medicine Therapeutics Using Astatine-211” (International Journal of Molecular Sciences, 2024)

System: LAT1-Tet/HEK293 cells
Experiment: Uptake versus LAT1 expression level (Dox-induced) in LAT1-Tet/HEK293 cells
Assay type: cell-based
Settings: collection 30 min after treatment
Method: Each cell line was seeded in 24 wells at 1 × 10^5 cells/mL and allowed to become sub-confluent on the day of the experiment. Cells were washed with PBS (-) (Fujifilm Wako Pure Chemical, Osaka, Japan) prior to the addition of the compound, which was then replaced with uptake buffer. After treating the cells with the same dose, they were collected at predetermined time points. The cell dose was measured using a γ-counter (Wizard^2 2480; PerkinElmer, Waltham, MA, USA), and the protein content of the sample was determined. Protein content was measured using the BCA method, and the dose was corrected using the protein content (Protein Assay BCA kit, Fujifilm Wako Pure Chemical).
Figure 2 Comparison of uptake between the labeled compounds. (A) Relation between uptake ratio and LAT1 expression level. Uptake ratios were compared between LAT1-Tet/HEK293 cells. The Y-axis represents the uptake ratio, and the X-axis is concentration of Doxycycline (Dox) (TaKaRa Bio, Shiga, Japan). The collection time was 30 min after treatment. The expression of LAT1 increased with increasing amounts of Dox. (B) Comparison of uptake in PANC-1 cell line. The collection times were 0.5, 1, 5 and 10 min after treatment.
The PANC-1 cell line was obtained from the RIKEN Cell Bank and maintained in RPMI 1640 medium (Fujifilm Wako Pure Chemical, Osaka, Japan) supplemented with 10% inactivated fetal bovine serum (Thermo Fisher Scientific, Waltham, MA, USA). Mock/HEK293, LAT1/HEK293, and LAT2/HEK203 cells were kindly provided by Dr. Kanai. Cell lines controlling LAT1 expression were constructed using the Tet-on system. HEK293 cells were obtained from the RIKEN Cell Bank and maintained in E-MEM (Fujifilm Wako Pure Chemical) supplemented with 10% inactivated fetal bovine serum (Thermo Fisher Scientific) and non-essential amino acids (Fujifilm Wako Pure Chemical). The expression vectors were purchased from VectorBuilder, Inc. (Kanagawa, Japan). The purified viral particle genes were transfected into HEK293 cells. Drug selection and cloning of the cell line (Tet-LAT1/HEK293) were performed. […]

COc1ccc(C[C@](C)(N)C(=O)O)cc1[211At] [^211At-AAMT-O-Me-L, (S)-2-amino-3-(3-(astato-^211At)-4-methoxyphenyl)-2-methylpropanic acid]
Uptake ratio versus LAT1 expression (doxycycline concentration): highest increase in uptake
